For one assay, the system named is Aspergillus ochraceus. As to the kind of experiment: Antimicrobial activity against Aspergillus ochraceus AS3.3876 incubated for 24 hrs by absorbance based analysis. The class given is functional, organism-based.
Another assay has as its system Staphylococcus aureus. The experiment in a line: Antimicrobial activity against Staphylococcus aureus ATCC 29213 incubated for 24 hrs by absorbance based analysis. It is filed as functional, organism-based.
The next assay has as its system Aspergillus cristatus. As to the kind of experiment: Antimicrobial activity against Aspergillus cristatus CB10002 incubated for 24 hrs by absorbance based analysis. It is filed as functional, organism-based.
The test system of a further assay is MDA-MB-231. The experiment in a line: Cytotoxicity against human MDA-MB-231 cells assessed as inhibition of cell growth incubated for 72 hrs by CCK-8 assay. The note with it: MDA-MB-231, 72 h. The class given is functional, cell-based. (Formazan colour is commonly taken as a measure of viable cells.)
The test system of the next assay is Caco-2. The experiment in a line: Cytotoxicity against human Caco-2 cells assessed as inhibition of cell growth incubated for 72 hrs by CCK-8 assay. The class given is functional, cell-based. The note with it: Caco-2, 72 h.
The next assay deals with Saccharomyces cerevisiae. As to the kind of experiment: Antimicrobial activity against Saccharomyces cerevisiae AS2.399 incubated for 24 hrs by absorbance based analysis. It is filed as functional, organism-based.
The test system of another assay is HepG2. As to the kind of experiment: Cytotoxicity against human HepG2 cells assessed as inhibition of cell growth incubated for 72 hrs by CCK-8 assay. It is filed as functional, cell-based. The note with it: HepG2, 72 h.
For a further assay, the system named is A549. As to the kind of experiment: Cytotoxicity against human A549 cells assessed as inhibition of cell growth incubated for 72 hrs by CCK-8 assay. It is filed as functional, cell-based. The note with it: A549, 72 h.
A further assay has as its system Escherichia coli. The experiment in a line: Antimicrobial activity against Escherichia coli DH5alpha incubated for 24 hrs by absorbance based analysis. The class given is functional, organism-based.
The next assay deals with Aspergillus flavus. The experiment in a line: Antimicrobial activity against Aspergillus flavus AS3.3950 incubated for 24 hrs by absorbance based analysis. The class given is functional, organism-based.

Structures are written as SMILES. The source made the active and inactive calls. No cut-off for these calls is given here.

With `Cc1ccccc1/C=C/CCCCCCCCCCC(=O)O`, the result in the assay on Aspergillus ochraceus, in the assay on Staphylococcus aureus, in the assay on Aspergillus cristatus, in the assay with Saccharomyces cerevisiae, in the assay with Escherichia coli and with Aspergillus flavus was inactive. For the same compound, the IC50 in the assay on MDA-MB-231 was determined as 0.45 µM; in the assay with Caco-2 it was 4.6 µM; in the assay on HepG2, 2.2 µM; in the assay on A549 it was 0.35 µM.
As for `CCCCCCCCCCCCC(=O)O` [TRIDECANOATE], the figures for the IC50 in the assay with Caco-2 and in the assay with A549 were 280 µM and 250 µM, respectively.
The like results for `C=CCCCCCCCCCCC(=O)O` were, in that order, 140 µM and 120 µM.
`CCCC/C=C\CCCCCCCC(=O)O` [MYRISTOLEIC ACID]: the IC50 in the assay with Caco-2 and in the assay with A549 was 270 µM each time.
Consider `CCCCCCCCCCCCCC(=O)O` [MYRISTIC ACID], for which the IC50 was above 1000 µM in the assay on Caco-2 and 200 µM in the assay on A549.
`Cc1ccccc1/C=C/CCC(=O)O`: the result with Aspergillus ochraceus, in the assay with Staphylococcus aureus, with Aspergillus cristatus, in the assay with Saccharomyces cerevisiae, in the assay with Escherichia coli and in the assay with Aspergillus flavus was inactive. The IC50 with MDA-MB-231 is 190 µM; in the assay with Caco-2, above 1000 µM; in the assay with HepG2, 740 µM; in the assay with A549, 64 µM.

As a reminder, the IC50 is the concentration at which inhibition is half-maximal.

These data come from ChEMBL document CHEMBL5325480, “Discovery and Biosynthetic Studies of a Highly Reduced Cinnamoyl Lipid, Tripmycin A, from an Endophytic Streptomyces sp” (J Nat Prod, 2023).
